The source of these data is publication PMC7859335, “Discovery of Diaryl Ether Substituted Tetrahydrophthalazinones as TbrPDEB1 Inhibitors Following Structure-Based Virtual Screening” (Frontiers in Chemistry, 2021).

For one experiment, the target named is T1, TbrPDEB1 (Trypanosoma brucei, UniProt Q8WQX9).
T1 construct: The TbrPDEB1 catalytic domain phosphodiesterase activity assays were conducted based on a method reported by Sijm et al
T1 sequence (Q8WQX9 565-918 limits assumed): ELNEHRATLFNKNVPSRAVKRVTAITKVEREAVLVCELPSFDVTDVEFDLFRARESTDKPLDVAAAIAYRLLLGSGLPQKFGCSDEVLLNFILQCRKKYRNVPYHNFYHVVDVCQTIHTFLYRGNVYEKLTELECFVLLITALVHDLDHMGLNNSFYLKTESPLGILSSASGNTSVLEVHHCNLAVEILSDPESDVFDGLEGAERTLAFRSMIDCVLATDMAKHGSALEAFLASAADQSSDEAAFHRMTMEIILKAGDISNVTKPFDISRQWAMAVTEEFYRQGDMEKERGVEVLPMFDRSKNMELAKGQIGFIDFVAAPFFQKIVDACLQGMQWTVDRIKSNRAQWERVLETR
Briefly: TbrPDEB1 catalytic domain phosphodiesterase activity assay (PDELight HTS cAMP kit). The experiment is classed as biochemical. The settings on record: single point assay at 10 μM inhibitor. On the procedure: The TbrPDEB1 catalytic domain phosphodiesterase activity assays were conducted based on a method reported by Sijm et al. ([2019]) with minor adaptations (Sijm et al., [2019]). The PDELight™ HTS cAMP phosphodiesterase Kit (Lonza, Walkersville, USA) was performed at 25°C in non-binding, low volume 384-well plates (Corning, Kennebunk, ME, USA). […] Single concentration measurements were made at 10 μM inhibitor concentration (triplo measurements/assay, n = 2). Dose-response curves were made in the range 100 μM−10 pM (triplo measurements/assay, n = 3). Compounds were diluted in DMSO (final in-test concentration 1%). Inhibitor dilutions (2.5 μL) were transferred to the 384-well plates, 2.5 μL of PDE in stimulation buffer was added and mixed, 5 μL of cAMP (at 2 × Km up to 20 μM) added and the assay mixture was incubated for 20 min at 300 rpm. […] Then, 5 μL of Lonza Detection reagent (diluted to 80% with reaction buffer) was added and the reaction incubated for 10 min at 300 rpm. Luminescence was read with a Victor3 luminometer using a 0.1 s/well program.
The Ki values of the inhibitors analyzed are represented as the mean of at least three independent experiments with the associated standard error of the mean (S.E.M.).
As for `COc1ccc(C2=NN(C(C)C)C(=O)[C@H]3CC=CC[C@@H]23)cc1Oc1nccc2sccc12` (relative stereo) [2j, cis-2-Isopropyl-4-(4-methoxy-3-(thieno[3,2-c]pyridin-4-yloxy)phenyl)-4a,5,8,8a-tetrahydrophthalazin-1(2H)-one], the “TbrPDEB1 (% inh.)” value is on record as “No inhibition”.
Same read-out and setting: under `COc1ccc(C2=NN(C(C)C)C(=O)[C@H]3CC=CC[C@@H]23)cc1Oc1ncnc2sccc12` (relative stereo) [2k, cis-2-Isopropyl-4-(4-methoxy-3-(thieno[2,3-d]pyrimidin-4-yloxy)phenyl)-4a,5,8,8a-tetrahydrophthalazin-1(2H)-one] stands “No inhibition”.
Take `COc1ccc(C2=NN(C(C)C)C(=O)[C@H]3CC=CC[C@@H]23)cc1Oc1nccn2cnnc12` (relative stereo) [2l, cis-4-(3-([1,2,4]Triazolo[4,3-a]pyrazin-8-yloxy)-4-methoxyphenyl)-2-isopropyl-4a,5,8,8a-tetrahydrophthalazin-1(2H)-one]: the “TbrPDEB1 (% inh.)” value is “No inhibition”.
Still for that read-out and setting: under `COc1ccc(C2=NN(C(C)C)C(=O)[C@H]3CC=CC[C@@H]23)cc1Oc1nc2ccccc2s1` (relative stereo) [2p, cis-4-(3-(Benzo[d]thiazol-2-yloxy)-4-methoxyphenyl)-2-isopropyl-4a,5,8,8a-tetrahydrophthalazin-1(2H)-one] stands “No inhibition”; under `COC(=O)c1cccnc1Oc1cc(C2=NN(C(C)C)C(=O)[C@@H]3CC=CC[C@H]23)ccc1OC` (relative stereo) [3a, Methyl 2-(5-(cis-3-isopropyl-4-oxo-3,4,4a,5,8,8a-hexahydrophthalazin-1-yl)-2-methoxyphenoxy)nicotinate], “No inhibition”; under `COc1ccc(C2=NN(C(C)C)C(=O)[C@@H]3CC=CC[C@H]23)cc1Oc1cc(C#N)ccn1` (relative stereo) [3b, 2-(5-(cis-3-Isopropyl-4-oxo-3,4,4a,5,8,8a-hexahydrophthalazin-1-yl)-2-methoxyphenoxy)isonicotinonitrile], “No inhibition”.
Same read-out and setting: under `COc1ccc(C2=NN(C(C)C)C(=O)[C@@H]3CC=CC[C@H]23)cc1Oc1ncccc1C(=O)O` (relative stereo) [3e, 2-(5-(cis-3-Isopropyl-4-oxo-3,4,4a,5,8,8a-hexahydrophthalazin-1-yl)-2-methoxyphenoxy)nicotinic acid] stands “No inhibition”.
`COc1ccc(C2=NN(C(C)C)C(=O)[C@@H]3CC=CC[C@H]23)cc1Oc1cc(C(=O)O)ccn1` (relative stereo) [3f, 2-(5-(cis-3-Isopropyl-4-oxo-3,4,4a,5,8,8a-hexahydrophthalazin-1-yl)-2-methoxyphenoxy)isonicotinic acid]: the “TbrPDEB1 (% inh.)” value is reported as “No inhibition”.
With `COc1ccc(C2=NN(C(C)C)C(=O)[C@@H]3CC=CC[C@H]23)cc1Oc1cccc(C(=O)O)n1` (relative stereo) [3h, 6-(5-(cis-3-Isopropyl-4-oxo-3,4,4a,5,8,8a-hexahydrophthalazin-1-yl)-2-methoxyphenoxy)picolinic acid], the “TbrPDEB1 (% inh.)” value is on record as “No inhibition”.
Consider `COc1ccc(C2=NN(C(C)C)C(=O)[C@@H]3CC=CC[C@H]23)cc1Oc1ncccc1C(N)=O` (relative stereo) [3i, 2-(5-(cis-3-Isopropyl-4-oxo-3,4,4a,5,8,8a-hexahydrophthalazin-1-yl)-2-methoxyphenoxy)nicotinamide], for which the “TbrPDEB1 (% inh.)” value is “No inhibition”.
Still for that read-out and setting: under `COc1ccc(C2=NN(C(C)C)C(=O)[C@@H]3CC=CC[C@H]23)cc1Oc1cc(C(N)=O)ccn1` (relative stereo) [3j, 2-(5-(cis-3-Isopropyl-4-oxo-3,4,4a,5,8,8a-hexahydrophthalazin-1-yl)-2-methoxyphenoxy)isonicotinamide] stands “No inhibition”; under `COc1ccc(C2=NN(C(C)C)C(=O)[C@@H]3CC=CC[C@H]23)cc1Oc1ccc(C(N)=O)cn1` (relative stereo) [3k, 6-(5-(cis-3-Isopropyl-4-oxo-3,4,4a,5,8,8a-hexahydrophthalazin-1-yl)-2-methoxyphenoxy)nicotinamide], “No inhibition”.
Take `CCCCNC(=O)c1cccnc1Oc1cc(C2=NN(C(C)C)C(=O)[C@@H]3CC=CC[C@H]23)ccc1OC` (relative stereo) [3p, N-Butyl-2-(5-(cis-3-isopropyl-4-oxo-3,4,4a,5,8,8a-hexahydrophthalazin-1-yl)-2-methoxyphenoxy)nicotinamide]: the “TbrPDEB1 (% inh.)” value is listed as “No inhibition”.
On the same count and under the same terms, under `CCCCNC(=O)c1ccnc(Oc2cc(C3=NN(C(C)C)C(=O)[C@@H]4CC=CC[C@H]34)ccc2OC)c1` (relative stereo) [3q, N-Butyl-2-(5-(cis-3-isopropyl-4-oxo-3,4,4a,5,8,8a-hexahydrophthalazin-1-yl)-2-methoxyphenoxy)isonicotinamide] stands “No inhibition”; under `CCCCNC(=O)c1ccc(Oc2cc(C3=NN(C(C)C)C(=O)[C@@H]4CC=CC[C@H]34)ccc2OC)nc1` (relative stereo) [3r, N-Butyl-6-(5-(cis-3-isopropyl-4-oxo-3,4,4a,5,8,8a-hexahydrophthalazin-1-yl)-2-methoxyphenoxy)nicotinamide], “No inhibition”.

The experiment is the same for the next values; noted with them: single point assay at 10 μM inhibitor; read-out: TbrPDEB1 (% inh.).
On to `COc1ccc(C2=NN(C(C)C)C(=O)[C@H]3CC=CC[C@@H]23)cc1Oc1nccs1` (relative stereo) [2a, cis-2-Isopropyl-4-(4-methoxy-3-(thiazol-2-yloxy)phenyl)-4a,5,8,8a-tetrahydrophthalazin-1(2H)-one], for which the inhibition at 10 µM was found to be 12 ± 3%.
The same measure, in the same setting: under `CCOC(=O)c1cnc(Oc2cc(C3=NN(C(C)C)C(=O)[C@@H]4CC=CC[C@H]34)ccc2OC)s1` (relative stereo) [2b, Ethyl 2-(5-(cis-3-isopropyl-4-oxo-3,4,4a,5,8,8a-hexahydrophthalazin-1-yl)-2-methoxyphenoxy)thiazole-5-carboxylate] stands 11%.
Consider `COc1ccc(C2=NN(C(C)C)C(=O)[C@H]3CC=CC[C@@H]23)cc1Oc1ncc(CN2CCOCC2)s1` (relative stereo) [2c, cis-2-Isopropyl-4-(4-methoxy-3-((5-(morpholinomethyl)thiazol-2-yl)oxy)phenyl)-4a,5,8,8a-tetrahydrophthalazin-1(2H)-one], for which the inhibition at 10 µM is 40 ± 4%.
As for `COc1ccc(C2=NN(C(C)C)C(=O)[C@@H]3CC=CC[C@H]23)cc1Oc1cnc(C(N)=O)cn1` (relative stereo) [2e, 5-(5-(cis-3-Isopropyl-4-oxo-3,4,4a,5,8,8a-hexahydrophthalazin-1-yl)-2-methoxyphenoxy)pyrazine-2-carboxamide], the inhibition at 10 µM is 18 ± 9%.
As for `COc1ccc(C2=NN(C(C)C)C(=O)[C@H]3CC=CC[C@@H]23)cc1Oc1cc(N2CCOCC2)ncn1` (relative stereo) [2f, cis-2-Isopropyl-4-(4-methoxy-3-((6-morpholinopyrimidin-4-yl)oxy)phenyl)-4a,5,8,8a-tetrahydrophthalazin-1(2H)-one], the inhibition at 10 µM was determined as 11 ± 8%.
On the same count and under the same terms, under `COc1ccc(C2=NN(C(C)C)C(=O)[C@@H]3CC=CC[C@H]23)cc1Oc1cccc(C#N)n1` (relative stereo) [3d, 6-(5-(cis-3-Isopropyl-4-oxo-3,4,4a,5,8,8a-hexahydrophthalazin-1-yl)-2-methoxyphenoxy)picolinonitrile] stands 36 ± 6%; under `COc1ccc(C2=NN(C(C)C)C(=O)[C@@H]3CC=CC[C@H]23)cc1Oc1ccc(C(=O)O)cn1` (relative stereo) [3g, 6-(5-(cis-3-Isopropyl-4-oxo-3,4,4a,5,8,8a-hexahydrophthalazin-1-yl)-2-methoxyphenoxy)nicotinic acid], 11 ± 6%.
Take `COc1ccc(C2=NN(C(C)C)C(=O)[C@@H]3CC=CC[C@H]23)cc1Oc1cc(C(=O)NCC(N)=O)ccn1` (relative stereo) [3m, N-(2-Amino-2-oxoethyl)-2-(5-(cis-3-isopropyl-4-oxo-3,4,4a,5,8,8a-hexahydrophthalazin-1-yl)-2-methoxyphenoxy)isonicotinamide]: the inhibition at 10 µM was 27%.
As to `COc1ccc(C2=NN(C(C)C)C(=O)[C@@H]3CC=CC[C@H]23)cc1Oc1ccc(C(=O)NCC(N)=O)cn1` (relative stereo) [3n, N-(2-Amino-2-oxoethyl)-6-(5-(cis-3-isopropyl-4-oxo-3,4,4a,5,8,8a-hexahydrophthalazin-1-yl)-2-methoxyphenoxy)nicotinamide], the inhibition at 10 µM stood at 5 ± 1%.
Same read-out and setting: under `COc1ccc(C2=NN(C(C)C)C(=O)[C@@H]3CC=CC[C@H]23)cc1Oc1cccc(C(=O)NCC(N)=O)n1` (relative stereo) [3o, N-(2-Amino-2-oxoethyl)-6-(5-(cis-3-isopropyl-4-oxo-3,4,4a,5,8,8a-hexahydrophthalazin-1-yl)-2-methoxyphenoxy)picolinamide] stands 40 ± 1%.
